As a reminder, the IC50 is the midpoint of a concentration-inhibition curve.

Structures are written as SMILES. Where only a bound is given, the exact number is not on record here.

The test system of the test is Leishmania donovani. Kind of test: Antileishmanial activity against Leishmania donovani LV9 promastigotes by MTT method. Format: functional, organism-based. (In general: Tetrazolium assays rely on reduction of a dye to a coloured formazan, in cell work by metabolically active cells.)

The compound `N#Cc1cn([C@H]2C[C@H](O)[C@@H](CO)O2)c(=O)[nH]c1=O` returned an IC50 of more than 100 µM. In the case of `N#CC1=C(N)Oc2cc3ccccc3c(O)c2C1c1cn([C@H]2C[C@H](O)[C@@H](CO)O2)c(=O)[nH]c1=O` (some centres undefined) it was more than 100 µM. The value for `CC(=O)OC[C@H]1O[C@@H](n2cc(C3C(C#N)=C(N)OC4=C3C(=O)CCC4)c(=O)[nH]c2=O)C[C@@H]1OC(C)=O` (some centres undefined) was 68.7 µM; that for `C[C@@H]1[C@H](O)[C@@H](C)/C=C/C=C/C=C/C=C/C=C/C=C/C=C/[C@H](O[C@@H]2O[C@H](C)[C@@H](O)[C@H](N)[C@@H]2O)C[C@@H]2O[C@](O)(C[C@@H](O)C[C@@H](O)[C@H](O)CC[C@@H](O)C[C@@H](O)CC(=O)O[C@H]1C)C[C@H](O)[C@H]2C(=O)O` [AMPHOTERICIN B] was 0.1 µM; that for `N=C(N)c1ccc(OCCCCCOc2ccc(C(=N)N)cc2)cc1` [PENTAMIDINE] was 6.6 µM.

Consider `CC(=O)OC[C@H]1O[C@@H](n2cc(C3C(C#N)=C(N)OC4=C3C(=O)CC(c3ccc(Cl)cc3)C4)c(=O)[nH]c2=O)C[C@@H]1OC(C)=O` (some centres undefined), for which the midpoint of inhibition, the IC50, lay at 80.2 µM.

For `CC(=O)OC[C@H]1O[C@@H](n2cc(/C=C\C#N)c(=O)[nH]c2=O)C[C@@H]1OC(C)=O`, the IC50 is more than 100 µM. `CCOC(=O)C1=C(N)OC2=C(C(=O)CC(C)(C)C2)C1c1cn([C@H]2C[C@H](O)[C@@H](CO)O2)c(=O)[nH]c1=O` (some centres undefined) displayed an IC50 of 7.2 µM. That is a single-digit micromolar value. For the compound `CC(=O)OC[C@@H]1O[C@H](n2cc(C3C(C#N)=C(N)OC4CC(c5ccc(N(C)C)cc5)CC(=O)C43)c(=O)[nH]c2=O)C[C@H]1OC(C)=O` (some centres undefined), half-maximal inhibition (IC50) required 100 µM.

For `CCOC(=O)/C(C#N)=C/c1cn([C@H]2C[C@H](OC(C)=O)[C@@H](COC(C)=O)O2)c(=O)[nH]c1=O`, inhibition was half-maximal at 39.1 µM (IC50). `N#CC1=C(N)OC2=C(C(=O)CC(c3ccc(F)cc3)C2)C1c1cn([C@H]2C[C@H](O)[C@@H](CO)O2)c(=O)[nH]c1=O` (some centres undefined) registered an IC50 of 8.4 µM. As to `N#CC1=C(N)OC2=C(C(=O)CC(c3ccc(Cl)cc3)C2)C1c1cn([C@H]2C[C@H](O)[C@@H](CO)O2)c(=O)[nH]c1=O` (some centres undefined), the IC50 was more than 100 µM. The value for `CCOC(=O)C1=C(N)OC2=C(C(=O)CC(C)(C)C2)C1c1cn([C@H]2C[C@H](OC(C)=O)[C@@H](COC(C)=O)O2)c(=O)[nH]c1=O` (some centres undefined) was more than 100 µM; that for `CC(=O)OC[C@H]1O[C@@H](n2cc(/C=C/C#N)c(=O)[nH]c2=O)C[C@@H]1OC(C)=O` was more than 100 µM; that for `CC(=O)OC[C@H]1O[C@@H](n2cc(C3C(C#N)=C(N)OC4=C3C(=O)CC(c3ccccc3)C4)c(=O)[nH]c2=O)C[C@@H]1OC(C)=O` (some centres undefined) was 85.9 µM. The compound `CCOC(=O)C1=C(N)OC2=C(C(=O)CCC2)C1c1cn([C@H]2C[C@H](O)[C@@H](CO)O2)c(=O)[nH]c1=O` (some centres undefined) yielded an IC50 of 10.5 µM.

Compound `CC(=O)OC[C@H]1O[C@@H](n2cc(C=C(C#N)C#N)c(=O)[nH]c2=O)C[C@@H]1OC(C)=O` came in with an IC50 of 30.1 µM.

With `CN(C)c1ccc(C2CC(=O)C3C(C2)OC(N)=C(C#N)C3c2cn([C@@H]3C[C@@H](O)[C@H](CO)O3)c(=O)[nH]c2=O)cc1` (some centres undefined), the IC50 is 6.2 µM. `CC1(C)CC(=O)C2=C(C1)OC(N)=C(C#N)C2c1cn([C@H]2C[C@H](O)[C@@H](CO)O2)c(=O)[nH]c1=O` (some centres undefined): the IC50 was more than 100 µM.

Take `N#CC(C#N)=Cc1cn([C@H]2C[C@H](O)[C@@H](CO)O2)c(=O)[nH]c1=O`: it took 1.5 µM to reach half-maximal inhibition (IC50). As for `CC(=O)OC[C@H]1O[C@@H](n2cc(C3C(C#N)=C(N)OC4=C3C(=O)CC(c3ccc(F)cc3)C4)c(=O)[nH]c2=O)C[C@@H]1OC(C)=O` (some centres undefined), the IC50 was 95.3 µM. In the case of `N#C/C=C/c1cn([C@H]2C[C@H](O)[C@@H](CO)O2)c(=O)[nH]c1=O` it was 92 µM; in that of `CC(=O)OC[C@H]1O[C@@H](n2cc(C=O)c(=O)[nH]c2=O)C[C@@H]1OC(C)=O`, more than 100 µM; in that of `N#CC1=C(N)OC2=C(C(=O)CCC2)C1c1cn([C@H]2C[C@H](O)[C@@H](CO)O2)c(=O)[nH]c1=O` (some centres undefined), 1.4 µM. In the case of `O=Cc1cn([C@H]2C[C@H](O)[C@@H](CO)O2)c(=O)[nH]c1=O` it was 0.9 µM; in that of `CC(=O)OC[C@H]1O[C@@H](n2cc(C3C(C#N)=C(N)Oc4cc5ccccc5c(O)c43)c(=O)[nH]c2=O)C[C@@H]1OC(C)=O` (some centres undefined), more than 100 µM; in that of `CC(=O)OC[C@H]1O[C@@H](n2cc(C3C(C#N)=C(N)OC4=C3C(=O)CC(C)C4)c(=O)[nH]c2=O)C[C@@H]1OC(C)=O` (some centres undefined), more than 100 µM. In the case of `CC(=O)OC[C@H]1O[C@@H](n2cc(C3C(C#N)=C(N)OC4=C3C(=O)CC(C)(C)C4)c(=O)[nH]c2=O)C[C@@H]1OC(C)=O` (some centres undefined) it was 80.4 µM; in that of `COC(=O)/C(C#N)=C/c1cn([C@H]2C[C@H](O)[C@@H](CO)O2)c(=O)[nH]c1=O`, 7.3 µM; in that of `CCOC(=O)/C(C#N)=C/c1cn([C@H]2C[C@H](O)[C@@H](CO)O2)c(=O)[nH]c1=O`, 1.9 µM. On to `CC1=NN(c2ccccc2)C(=O)/C1=C(\C)c1cn([C@H]2C[C@H](O)[C@@H](CO)O2)c(=O)[nH]c1=O`, for which half-maximal inhibition (IC50) was put at 3 µM.

Take `CC1CC(=O)C2=C(C1)OC(N)=C(C#N)C2c1cn([C@H]2C[C@H](O)[C@@H](CO)O2)c(=O)[nH]c1=O` (some centres undefined): it took 9.4 µM to reach half-maximal inhibition (IC50).

Compound `CN(C)c1ccc2c(c1)OC(N)=C(C#N)C2c1cn([C@H]2C[C@H](O)[C@@H](CO)O2)c(=O)[nH]c1=O` (some centres undefined) came in with an IC50 of more than 100 µM.

On to `Cc1cn([C@H]2C[C@H](N=[N+]=[N-])[C@@H](CO)O2)c(=O)[nH]c1=O` [ZIDOVUDINE], for which the IC50 came to 3.4 µM.
